System: hypoxic HeLa cells
Experiment: Detection of hypoxia with hypoxia markers using fluorescence microscopy
Assay type: cell-based, human
Conditions: 5 μM, 3.5 h, chemical induction of hypoxia (CoCl2, DFO, DMOG) or anoxic treatment, FITC filter
Description: The human cervical adenocarcinoma epithelial cell line HeLa, U-2 OS human bone osteosarcoma cell line and hamster ovary CHO K1 cell line were obtained from ATTC. HeLa cells were routinely cultured in Eagle's Minimum Essential Medium with low glucose (ATCC), supplemented with 10% fetal bovine serum (ATCC) and 100 U/ml penicillin, 100 μg/ml streptomycin (Sigma-Aldrich, St. Louis, Mo.). U-2 OS cells were routinely cultured in McCoy's 5a Modified Medium (ATCC), supplemented with 10% fetal bovine serum heat (ATCC) and 100 U/ml penicillin+100 μg/ml streptomycin (Sigma-Aldrich). […]
The day before the experiment, the cells were seeded on 4-well microscope slides (Cel-Line™ Brand, Portsmouth, N.H.) at a density 1×10^4 cells/well (2×10^4 cells/cm^2). […] Post-treatment, the slides were washed twice with PBS, coverslipped and visualized using an Olympus BX-51 fluorescence microscope (FITC filter set, 490ex/525em).
In parallel, the hypoxia cellular state was detected using the hypoxia detecting reagent pimonidazole (Varia et al., 1998; Young, 1977). […] Slides were stained with a 1:100 dilution of FITC-MAb1 against pimonidazole (HP-1 kit from Hypoxyprobe) for 45 min at 4° C., washed twice with PBS, coverslipped and visualized using an Olympus BX-51 fluorescence microscope equipped with an FITC filter set (490ex/525em). […]

Compound: O=C(Nc1ccc2c(c1)Oc1cc(NC(=O)N3CCOCC3)ccc1C21OC(=O)c2ccccc21)OCc1ccc([N+](=O)[O-])cc1 (stereo not shown) [CD-1]
- fluorescence signal in hypoxic HeLa cells: bright fluorescence signal

— patent US8828678B2, “Self-immolative probes for enzyme activity detection” (Enzo Life Sciences, Inc., priority 2010, dated 2014)
